{
  "source": "patent US9446039B2",
  "about": "“Aminoheteroaryl compounds as MTH1 inhibitors” (CEMM—FORSCHUNGSZENTRUM FÜR MOLEKULARE MEDIZIN GMBH, priority 2012, dated 2016)",
  "type_in_all_cases": "binding",
  "key": {"[1]": {"target": "SW480 colon carcinoma cells lysate proteins (Homo sapiens, UniProt O75874)", "sequence (O75874 whole entry)": "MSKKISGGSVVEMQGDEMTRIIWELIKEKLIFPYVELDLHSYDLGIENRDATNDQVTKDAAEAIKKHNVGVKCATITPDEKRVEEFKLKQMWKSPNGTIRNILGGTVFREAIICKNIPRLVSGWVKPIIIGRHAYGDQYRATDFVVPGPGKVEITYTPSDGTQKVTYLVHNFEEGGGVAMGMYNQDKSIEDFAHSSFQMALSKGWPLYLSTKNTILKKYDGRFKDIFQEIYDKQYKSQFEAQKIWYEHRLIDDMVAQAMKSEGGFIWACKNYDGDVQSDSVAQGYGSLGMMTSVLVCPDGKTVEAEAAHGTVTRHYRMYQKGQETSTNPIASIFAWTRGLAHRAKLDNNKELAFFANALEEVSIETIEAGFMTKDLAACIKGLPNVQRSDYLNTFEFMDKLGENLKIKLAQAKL", "conditions": "PreyGene IDH1"}, "[2]": {"target": "T1, SW480 colon carcinoma cells lysate proteins (Homo sapiens, UniProt P49458)", "T1 sequence (P49458 1-86)": "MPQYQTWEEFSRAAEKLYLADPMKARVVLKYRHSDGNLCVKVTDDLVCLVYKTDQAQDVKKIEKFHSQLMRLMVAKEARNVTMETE", "conditions": "PreyGene SRP9"}, "[3]": {"target": "T2, SW480 colon carcinoma cells lysate proteins (Homo sapiens, UniProt P55209)", "T2 sequence (P55209 1-391)": "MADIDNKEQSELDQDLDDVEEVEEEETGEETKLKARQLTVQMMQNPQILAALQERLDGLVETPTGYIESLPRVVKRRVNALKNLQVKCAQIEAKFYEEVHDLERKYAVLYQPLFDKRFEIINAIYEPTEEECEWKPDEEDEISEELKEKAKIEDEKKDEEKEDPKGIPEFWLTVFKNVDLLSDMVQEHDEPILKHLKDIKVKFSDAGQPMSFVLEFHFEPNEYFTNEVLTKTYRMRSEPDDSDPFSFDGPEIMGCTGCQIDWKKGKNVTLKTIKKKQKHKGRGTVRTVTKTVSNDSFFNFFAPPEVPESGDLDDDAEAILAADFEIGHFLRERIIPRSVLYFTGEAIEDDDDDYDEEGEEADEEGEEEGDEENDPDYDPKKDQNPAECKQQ", "conditions": "PreyGene NAP1L1"}, "[4]": {"target": "T3, SW480 colon carcinoma cells lysate proteins (Homo sapiens, UniProt P68402)", "T3 sequence (P68402 1-229)": "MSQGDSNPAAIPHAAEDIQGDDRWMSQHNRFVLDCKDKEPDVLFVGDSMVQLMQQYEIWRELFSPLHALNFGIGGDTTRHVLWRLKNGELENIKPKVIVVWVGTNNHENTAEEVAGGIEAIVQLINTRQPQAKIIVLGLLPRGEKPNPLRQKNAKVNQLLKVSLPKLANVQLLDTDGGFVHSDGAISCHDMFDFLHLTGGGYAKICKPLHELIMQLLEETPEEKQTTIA", "conditions": "PreyGene PAFAH1B2; SW480 cells"}, "[5]": {"target": "SW480 colon carcinoma cells lysate proteins (Homo sapiens, UniProt Q13561)", "sequence (Q13561 whole entry)": "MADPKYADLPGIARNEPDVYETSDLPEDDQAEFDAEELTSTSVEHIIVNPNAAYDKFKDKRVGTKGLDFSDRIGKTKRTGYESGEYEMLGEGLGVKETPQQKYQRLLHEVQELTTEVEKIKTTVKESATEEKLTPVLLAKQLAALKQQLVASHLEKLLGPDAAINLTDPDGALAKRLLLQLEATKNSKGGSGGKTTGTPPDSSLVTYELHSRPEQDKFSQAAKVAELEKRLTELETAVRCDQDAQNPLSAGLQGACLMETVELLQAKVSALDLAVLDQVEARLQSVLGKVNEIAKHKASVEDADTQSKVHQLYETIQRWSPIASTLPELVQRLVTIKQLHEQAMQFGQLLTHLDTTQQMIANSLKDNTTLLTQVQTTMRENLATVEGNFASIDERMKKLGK", "conditions": "PreyGene DCTN2"}, "[6]": {"target": "T4, SW480 colon carcinoma cells lysate proteins (Homo sapiens, UniProt Q14498)", "T4 sequence (Q14498 1-530)": "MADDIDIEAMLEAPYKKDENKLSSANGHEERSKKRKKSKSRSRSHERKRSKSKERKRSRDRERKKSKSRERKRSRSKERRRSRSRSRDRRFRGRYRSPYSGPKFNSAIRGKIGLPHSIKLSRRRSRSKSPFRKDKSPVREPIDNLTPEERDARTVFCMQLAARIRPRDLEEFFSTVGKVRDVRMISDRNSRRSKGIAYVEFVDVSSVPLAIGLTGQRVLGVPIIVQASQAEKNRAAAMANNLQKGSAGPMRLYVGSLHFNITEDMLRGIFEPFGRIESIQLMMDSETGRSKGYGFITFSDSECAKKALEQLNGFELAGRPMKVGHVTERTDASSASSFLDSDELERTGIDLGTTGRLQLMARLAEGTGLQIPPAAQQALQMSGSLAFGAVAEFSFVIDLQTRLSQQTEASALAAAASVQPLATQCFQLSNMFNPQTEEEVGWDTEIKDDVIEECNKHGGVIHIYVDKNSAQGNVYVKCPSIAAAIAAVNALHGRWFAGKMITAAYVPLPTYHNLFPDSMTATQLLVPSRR", "conditions": "PreyGene RBM39"}, "[7]": {"target": "T5, SW480 colon carcinoma cells lysate proteins (Homo sapiens, UniProt Q15691)", "T5 sequence (Q15691 1-268)": "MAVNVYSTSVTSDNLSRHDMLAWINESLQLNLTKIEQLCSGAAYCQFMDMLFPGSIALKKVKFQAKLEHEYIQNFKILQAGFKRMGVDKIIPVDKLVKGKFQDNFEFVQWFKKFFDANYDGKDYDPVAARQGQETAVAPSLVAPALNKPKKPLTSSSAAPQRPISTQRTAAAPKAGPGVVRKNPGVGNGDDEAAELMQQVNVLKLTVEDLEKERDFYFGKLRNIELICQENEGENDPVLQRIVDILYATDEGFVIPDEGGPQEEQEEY", "conditions": "PreyGene MAPRE1"}, "[8]": {"target": "SW480 colon carcinoma cells lysate proteins (Homo sapiens, UniProt Q7Z406)", "sequence (Q7Z406 whole entry)": "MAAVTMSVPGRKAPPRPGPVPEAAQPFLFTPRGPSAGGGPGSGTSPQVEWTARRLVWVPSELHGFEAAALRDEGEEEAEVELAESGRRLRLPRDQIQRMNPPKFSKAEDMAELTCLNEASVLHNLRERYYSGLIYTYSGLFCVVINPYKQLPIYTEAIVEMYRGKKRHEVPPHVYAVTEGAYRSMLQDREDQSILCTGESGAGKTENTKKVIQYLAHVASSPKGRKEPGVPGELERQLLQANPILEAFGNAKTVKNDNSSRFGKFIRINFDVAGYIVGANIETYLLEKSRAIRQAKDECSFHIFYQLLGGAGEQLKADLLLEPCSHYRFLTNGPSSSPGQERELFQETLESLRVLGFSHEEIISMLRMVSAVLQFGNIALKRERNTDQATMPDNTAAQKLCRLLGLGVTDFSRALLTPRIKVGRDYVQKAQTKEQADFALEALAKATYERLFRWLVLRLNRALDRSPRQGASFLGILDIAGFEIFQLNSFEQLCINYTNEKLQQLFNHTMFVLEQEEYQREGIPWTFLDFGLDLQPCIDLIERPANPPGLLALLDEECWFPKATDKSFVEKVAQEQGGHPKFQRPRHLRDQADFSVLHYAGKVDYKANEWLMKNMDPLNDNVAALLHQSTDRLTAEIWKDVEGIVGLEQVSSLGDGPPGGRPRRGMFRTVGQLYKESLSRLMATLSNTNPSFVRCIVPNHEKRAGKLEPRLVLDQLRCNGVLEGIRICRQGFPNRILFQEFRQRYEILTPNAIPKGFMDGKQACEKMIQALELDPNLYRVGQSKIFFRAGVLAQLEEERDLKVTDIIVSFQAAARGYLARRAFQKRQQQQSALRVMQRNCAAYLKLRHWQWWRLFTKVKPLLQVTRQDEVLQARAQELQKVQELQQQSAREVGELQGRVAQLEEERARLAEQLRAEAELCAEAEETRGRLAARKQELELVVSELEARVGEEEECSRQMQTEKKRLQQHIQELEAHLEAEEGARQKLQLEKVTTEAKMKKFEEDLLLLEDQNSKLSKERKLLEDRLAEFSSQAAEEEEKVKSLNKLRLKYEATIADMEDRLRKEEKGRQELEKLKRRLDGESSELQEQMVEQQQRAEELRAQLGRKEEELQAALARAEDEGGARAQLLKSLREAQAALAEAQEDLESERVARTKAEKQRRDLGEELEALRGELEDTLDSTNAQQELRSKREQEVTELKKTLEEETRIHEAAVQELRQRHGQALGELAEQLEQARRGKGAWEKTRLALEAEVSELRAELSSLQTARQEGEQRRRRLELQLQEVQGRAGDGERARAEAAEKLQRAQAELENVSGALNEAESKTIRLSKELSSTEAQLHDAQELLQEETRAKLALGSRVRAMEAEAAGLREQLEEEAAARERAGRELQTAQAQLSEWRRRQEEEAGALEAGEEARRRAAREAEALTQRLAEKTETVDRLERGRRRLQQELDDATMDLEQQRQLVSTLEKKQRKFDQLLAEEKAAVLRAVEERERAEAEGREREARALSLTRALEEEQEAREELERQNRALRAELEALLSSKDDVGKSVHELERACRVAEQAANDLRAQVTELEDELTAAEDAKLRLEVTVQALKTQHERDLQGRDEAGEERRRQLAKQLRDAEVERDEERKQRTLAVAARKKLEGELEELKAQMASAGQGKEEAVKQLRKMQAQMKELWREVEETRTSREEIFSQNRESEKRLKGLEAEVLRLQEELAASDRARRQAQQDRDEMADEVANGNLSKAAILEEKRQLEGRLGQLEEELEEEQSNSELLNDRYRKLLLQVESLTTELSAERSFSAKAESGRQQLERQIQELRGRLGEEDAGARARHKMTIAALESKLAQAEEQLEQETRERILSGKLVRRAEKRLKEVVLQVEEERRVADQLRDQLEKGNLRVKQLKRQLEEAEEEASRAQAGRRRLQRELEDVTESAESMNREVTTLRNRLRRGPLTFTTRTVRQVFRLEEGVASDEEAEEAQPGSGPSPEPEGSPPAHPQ", "conditions": "PreyGene MYH14; SW480 cells"}},
  "data": [
    {"compound": "C[C@H](Oc1cc(-c2cnn(C3CCNCC3)c2)cnc1N)c1c(Cl)ccc(F)c1Cl", "note": "[(5)-crizotinib]", "values": [
      {"measurement": "AvgP", "setting": "[1]", "value": 0.1991},
      {"measurement": "SC.Exp. 1-1", "setting": "[1]", "value": 3},
      {"measurement": "SC.Exp. 1-2", "setting": "[1]", "value": 0},
      {"measurement": "SC.Exp. 2-1", "setting": "[1]", "value": 0},
      {"measurement": "SC.Exp. 2-2", "setting": "[1]", "value": 0},
      {"measurement": "Sum (SC.Exp.)", "setting": "[1]", "value": 3},
      {"measurement": "AvgP", "setting": "[2]", "value": 0.2561},
      {"measurement": "SC.Exp. 1-1", "setting": "[2]", "value": 2},
      {"measurement": "SC.Exp. 1-2", "setting": "[2]", "value": 1},
      {"measurement": "SC.Exp. 2-1", "setting": "[2]", "value": 0},
      {"measurement": "SC.Exp. 2-2", "setting": "[2]", "value": 2},
      {"measurement": "Sum (SC.Exp.)", "setting": "[2]", "value": 5},
      {"measurement": "AvgP", "setting": "[3]", "value": 0.2244},
      {"measurement": "SC.Exp. 1-1", "setting": "[3]", "value": 1},
      {"measurement": "SC.Exp. 1-2", "setting": "[3]", "value": 2},
      {"measurement": "SC.Exp. 2-1", "setting": "[3]", "value": 0},
      {"measurement": "SC.Exp. 2-2", "setting": "[3]", "value": 0},
      {"measurement": "Sum (SC.Exp.)", "setting": "[3]", "value": 3},
      {"measurement": "AvgP", "setting": "[4]", "value": 0},
      {"measurement": "SC.Exp. 1-1", "setting": "[4]", "value": 1},
      {"measurement": "SC.Exp. 1-2", "setting": "[4]", "value": 1},
      {"measurement": "SC.Exp. 2-1", "setting": "[4]", "value": 0},
      {"measurement": "SC.Exp. 2-2", "setting": "[4]", "value": 0},
      {"measurement": "SC.Exp. Sum", "setting": "[4]", "value": 2},
      {"measurement": "AvgP", "setting": "[5]", "value": 0.2964},
      {"measurement": "SC.Exp. 1-1", "setting": "[5]", "value": 2},
      {"measurement": "SC.Exp. 1-2", "setting": "[5]", "value": 3},
      {"measurement": "SC.Exp. 2-1", "setting": "[5]", "value": 0},
      {"measurement": "SC.Exp. 2-2", "setting": "[5]", "value": 0},
      {"measurement": "Sum (SC.Exp.)", "setting": "[5]", "value": 5},
      {"measurement": "AvgP", "setting": "[6]", "value": 0.4214},
      {"measurement": "SC.Exp. 1-1", "setting": "[6]", "value": 4},
      {"measurement": "SC.Exp. 1-2", "setting": "[6]", "value": 3},
      {"measurement": "SC.Exp. 2-1", "setting": "[6]", "value": 0},
      {"measurement": "SC.Exp. 2-2", "setting": "[6]", "value": 0},
      {"measurement": "Sum (SC.Exp.)", "setting": "[6]", "value": 7},
      {"measurement": "AvgP", "setting": "[7]", "value": 0.4084},
      {"measurement": "SC.Exp. 1-1", "setting": "[7]", "value": 2},
      {"measurement": "SC.Exp. 1-2", "setting": "[7]", "value": 3},
      {"measurement": "SC.Exp. 2-1", "setting": "[7]", "value": 0},
      {"measurement": "SC.Exp. 2-2", "setting": "[7]", "value": 0},
      {"measurement": "Sum (SC.Exp.)", "setting": "[7]", "value": 5},
      {"measurement": "AvgP", "setting": "[8]", "value": 0},
      {"measurement": "SC.Exp. 1-1", "setting": "[8]", "value": 1},
      {"measurement": "SC.Exp. 1-2", "setting": "[8]", "value": 1},
      {"measurement": "SC.Exp. 2-1", "setting": "[8]", "value": 0},
      {"measurement": "SC.Exp. 2-2", "setting": "[8]", "value": 0},
      {"measurement": "SC.Exp. Sum", "setting": "[8]", "value": 2}
    ]}
  ]
}
